Measurements reported in patent publication US6593322B1, “Compounds and methods for modulation of estrogen receptors” (Signal Pharmaceuticals, Inc., priority 1999, dated 2003).
Structures can show the parent of a compound that is named as a salt.

Key:
human full-length ER-α = biological target: T1, human full-length ER-α (Homo sapiens, UniProt P03372); assay: IL-6 production in U2OS osteosarcoma cells stably transfected with ER-α; type: cell-based
T1 construct: expression vectors for human full-length ER-α or ER-β; expressed in transfected cells
T1 sequence (P03372 1-595): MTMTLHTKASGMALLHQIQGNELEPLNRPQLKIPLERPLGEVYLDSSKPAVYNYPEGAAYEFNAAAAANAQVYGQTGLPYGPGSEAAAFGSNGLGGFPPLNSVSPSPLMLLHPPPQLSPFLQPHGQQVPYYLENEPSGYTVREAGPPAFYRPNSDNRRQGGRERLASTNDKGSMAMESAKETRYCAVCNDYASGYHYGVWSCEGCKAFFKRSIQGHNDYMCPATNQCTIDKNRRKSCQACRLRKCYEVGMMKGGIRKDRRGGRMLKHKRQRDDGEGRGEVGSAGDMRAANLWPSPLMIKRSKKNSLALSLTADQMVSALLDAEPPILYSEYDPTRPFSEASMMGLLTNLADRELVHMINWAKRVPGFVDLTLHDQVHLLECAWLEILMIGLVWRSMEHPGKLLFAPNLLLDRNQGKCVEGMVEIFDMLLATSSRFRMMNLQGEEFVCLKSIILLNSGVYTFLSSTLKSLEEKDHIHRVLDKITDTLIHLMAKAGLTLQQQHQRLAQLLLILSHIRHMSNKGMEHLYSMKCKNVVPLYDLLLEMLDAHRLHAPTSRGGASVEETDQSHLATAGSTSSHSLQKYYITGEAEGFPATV

U2OS ER-Minus cells = assay: IL-6 production in ER-Minus (parental) U2OS osteosarcoma cells; type: cell-based, human; conditions: 24 h
human full-length ER-β = biological target: T2, human full-length ER-β (Homo sapiens, UniProt Q92731); assay: IL-6 production in U2OS osteosarcoma cells stably transfected with ER-β; type: cell-based
T2 construct: expression vectors for human full-length ER-α or ER-β; expressed in transfected cells

[1] = IL-6 after 10 ng/ml IL-1β and 10 ng/ml TNF-α, 50% inhibition relative to DMSO control

T2 sequence (Q92731 whole entry): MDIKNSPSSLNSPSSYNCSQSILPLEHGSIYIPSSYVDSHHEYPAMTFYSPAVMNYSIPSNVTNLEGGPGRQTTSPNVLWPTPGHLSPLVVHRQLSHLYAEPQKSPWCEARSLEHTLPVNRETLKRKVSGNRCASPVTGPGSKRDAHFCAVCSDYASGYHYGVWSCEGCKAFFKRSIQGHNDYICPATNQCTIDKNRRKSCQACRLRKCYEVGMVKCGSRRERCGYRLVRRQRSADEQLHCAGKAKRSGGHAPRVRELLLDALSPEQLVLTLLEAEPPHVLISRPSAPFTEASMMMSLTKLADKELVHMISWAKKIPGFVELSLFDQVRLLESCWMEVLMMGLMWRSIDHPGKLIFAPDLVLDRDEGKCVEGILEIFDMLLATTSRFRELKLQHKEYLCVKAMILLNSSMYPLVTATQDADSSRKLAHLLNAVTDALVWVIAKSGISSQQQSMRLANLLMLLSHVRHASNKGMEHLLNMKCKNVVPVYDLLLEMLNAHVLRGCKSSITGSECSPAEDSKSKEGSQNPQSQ

Molecule | IC50 (human full-length ER-α) [nM] | IC50 (human full-length ER-β) [nM] | melting point [°C] | IC50 (U2OS ER-Minus cells; Homo sapiens, U2OS) [nM] | IC50 (U2OS ER-Minus cells; [1]) [nM]
O=C(c1ccc(OCCN2CCCCC2)cc1)c1c(-c2ccc(O)cc2)sc2cc(O)ccc12 [Raloxifene Hydrochloride] | – | – | – | > 1000 | –
C[C@]12CC[C@@H]3c4ccc(O)cc4CC[C@H]3[C@@H]1CC[C@@H]2O [17-β-Estradiol] | – | – | – | – | > 1000
4-Hydroxy-Tamoxifen | – | – | – | – | > 1000

The next lines start with results.

IC50 (human full-length ER-α) [nM] | IC50 (human full-length ER-β) [nM] | melting point [°C] | Molecule | IC50 (U2OS ER-Minus cells; Homo sapiens, U2OS) [nM] | IC50 (U2OS ER-Minus cells; [1]) [nM]
10000 | 5000 | – | Oc1ccc2c(c1)CCCN(c1ccc(F)cc1)C2Cc1ccc(OCCN2CCCCC2)cc1 (stereo not shown) [Example 8] | > 10000 | –
> 1000 | 107 | – | Oc1ccc2c(c1)CCN(c1ccccc1)C2Cc1ccc(Br)cc1 (stereo not shown) [Example 2, 1-(4-Bromobenzyl)-2-phenyl-1,2,3,4-tetrahydroisoquinolin-6-ol] | > 1000 | –
1 | > 10000 | – | Oc1ccc2c(c1)CCN(c1ccc(F)cc1)C2c1ccc(OCCN2CCCCC2)cc1 (stereo not shown) [Compound A, reference compound] | > 10000 | –
2010 | 285 | – | Oc1ccc2c(c1)CCN(c1ccc(F)cc1)C2Cc1ccc(OCCN2CCCCC2)cc1 (stereo not shown) [Example 5] | > 10000 | –
– | – | 47 to 49 | CCN(CCOc1ccc(CC2c3ccc(O)cc3CCN2c2ccc(F)cc2)cc1)Cc1ccccc1 (stereo not shown) [Example 21, 1-{4-[(2-(N-Benzyl-N-ethyl)amino)ethoxy]benzyl}-2-(4-fluorophenyl)-1,2,3,4-tetrahydroisoquinolin-6-ol] | – | –
